pIC50: −log10 of the molar value.
The molecules below were run against T1, PD-1/PD-L1 interaction (Homo sapiens, UniProt Q9NZQ7) (assay: PD-1/PD-L1 Homogenous Time-Resolved Fluorescence (HTRF) binding assay (CisBio kit)). Conditions: Biochemical PD1/PD-L1 inhibition.
T1 construct: Tag1 (undisclosed kit tag); purchased CisBio 63ADK000CPAPEG
Method: PD-L1 Enzyme Assay: Homogenous Time-Resolved Fluorescence (HTRF) Binding Assay
All binding studies were performed using PD-1/PD-L1 Binding Assay Kit from CisBio (Catalog #63ADK000CPAPEG), according to the manufacturer's protocol. The interaction between Tag1-PD-1 and […] was detected by anti-Tag1-Eu^3+ (HTRF donor) and anti-Tag2-XL665 (HTRF acceptor). When the donor and acceptor antibodies were brought to close proximity due to PD-1 and PD-L1 binding, excitation of the donor antibody triggered fluorescent resonance energy transfer (FRET) towards the acceptor antibody, which in turn emitted specifically at 665 nm. This specific signal is positively proportional to PD-1/PD-L1 interaction. The compounds blocking PD-1/PD-L1 interaction will cause a reduction in HTRF signal. The necessary reagents were mixed in the following order: 2 μl compounds (or diluents buffer), 4 μl PD-L1 protein, 4 μl PD-1 protein. After an incubation of 15 minutes, 5 μl of anti-Tag1-Eu^3+ and 5 μl of anti-Tag2-XL665 were added. The plate was sealed and incubated at room temperature for 1 h. The fluorescence emission was read at two different wavelengths (665 nm and 620 nm) on a BMG PheraStar® multi-plate reader. Results were calculated from the 665 nm and 620 nm fluorescence signal and expressed in HTRF ratio=(665 nm/620 nm)×10^4.

T1 sequence (Q9NZQ7 19-238 limits assumed): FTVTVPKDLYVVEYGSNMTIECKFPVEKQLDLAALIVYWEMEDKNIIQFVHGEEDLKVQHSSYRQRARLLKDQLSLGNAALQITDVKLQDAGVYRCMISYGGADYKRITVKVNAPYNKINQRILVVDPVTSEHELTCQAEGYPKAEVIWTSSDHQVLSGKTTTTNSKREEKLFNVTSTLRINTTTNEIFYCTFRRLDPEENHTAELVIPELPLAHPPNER

Row | pIC50 | Structure (SMILES)
1 | 6.30 to 7.00 | Cc1c(COc2ccc(CN(C)CC(=O)O)c3c2CCC3)cccc1-c1ccccc1 [Compound 22, N-methyl-N-((7-((2-methyl-[1,1′-biphenyl]-3-yl)methoxy)-2,3-dihydro-1H-inden-4-yl)methyl)glycine]
2 | 6.30 to 7.00 | Cc1c(COc2ccc(CN3CCCC[C@H]3C(=O)O)c3c2CCCC3)cccc1-c1ccccc1 [Compound 27, 1-((4-((2-methyl-[1,1′-biphenyl]-3-yl)methoxy)-5,6,7,8-tetrahydronaphthalen-1-yl)methyl)piperidine-2-carboxylic acid]
3 | < 6.30 | CC(=O)NCCNCc1cc(C)c(OCc2cccc(-c3ccccc3)c2C)c2c1CCC2 [Compound 28, N-(2-(((6-methyl-7-((2-methyl-[1,1′-biphenyl]-3-yl)methoxy)-2,3-dihydro-1H-inden-4-yl)methyl)amino)ethyl)acetamide]
4 | 6.30 to 7.00 | Cc1c(COc2c(Cl)cc(CN3C[C@H](O)C[C@H]3C(=O)O)c3c2CCC3)cccc1-c1ccccc1 [Compound 31, (2S,4R)-1-((6-chloro-7-((2-methyl-[1,1′-biphenyl]-3-yl)methoxy)-2,3-dihydro-1H-inden-4-yl)methyl)-4-hydroxypyrrolidine-2-carboxylic acid]
5 | < 6.30 | COc1cc(OCc2cccc(-c3cccc(OCCCN4CCC(F)(F)C4)c3C)c2C)c2c(c1CN1C[C@H](O)C[C@H]1C(=O)O)CCC2 [Compound 33, (2S,4R)-1-((7-((3′-(3-(3,3-difluoropyrrolidin-1-yl)propoxy)-2,2′-dimethyl-[1,1′-biphenyl]-3-yl)methoxy)-5-methoxy-2,3-dihydro-1H-inden-4-yl)methyl)-4-hydroxypyrrolidine-2-carboxylic acid]
6 | > 7.00 | Cc1c(COc2cc(OCc3cccc(C#N)c3)c(CN3C[C@H](O)C[C@H]3C(=O)O)c3c2CCC3)cccc1-c1ccccc1 [Compound 35, (2S,4R)-1-((5-((3-cyanobenzyl)oxy)-7-((2-methyl-[1,1′-biphenyl]-3-yl)methoxy)-2,3-dihydro-1H-inden-4-yl)methyl)-4-hydroxypyrrolidine-2-carboxylic acid]
7 | > 7.00 | Cc1c(COc2cc(OCc3cccc(C#N)c3)c(CN3CCCC(O)C3)c3c2CCC3)cccc1-c1ccccc1 (centres unmarked) [Compound 40, 3-(((4-((3-hydroxypiperidin-1-yl)methyl)-7-((2-methyl-[1,1′-biphenyl]-3-yl)methoxy)-2,3-dihydro-1H-inden-5-yl)oxy)methyl)benzonitrile]
8 | > 7.00 | Cc1c(COc2cc(OCc3cccc(C#N)c3)c(CNCC(=O)O)c3c2CCC3)cccc1-c1ccccc1 [Compound 41, ((5-((3-cyanobenzyl)oxy)-7-((2-methyl-[1,1′-biphenyl]-3-yl)methoxy)-2,3-dihydro-1H-inden-4-yl)methyl)glycine]
9 | > 7.00 | Cc1c(COc2cc(OCc3cncc(C#N)c3)c(CN3CCCC[C@H]3C(=O)O)c3c2CCC3)cccc1-c1ccccc1 [Compound 46, (S)-1-((5-((5-cyanopyridin-3-yl)methoxy)-7-((2-methyl-[1,1′-biphenyl]-3-yl)methoxy)-2,3-dihydro-1H-inden-4-yl)methyl)piperidine-2-carboxylic acid]
10 | > 7.00 | Cc1c(COc2cc(OCc3cncc(C#N)c3)c(CN3C[C@H](O)C[C@H]3C(=O)O)c3c2CCC3)cccc1-c1ccccc1 [Compound 47, (2S,4R)-1-((5-((5-cyanopyridin-3-yl)methoxy)-7-((2-methyl-[1,1′-biphenyl]-3-yl)methoxy)-2,3-dihydro-1H-inden-4-yl)methyl)-4-hydroxypyrrolidine-2-carboxylic acid]

Second part, the molecule before the results:

Row | Structure (SMILES) | pIC50
11 | Cc1c(COc2ccc(CNC(C)CC(=O)O)c3c2CCC3)cccc1-c1ccccc1 (centres unmarked) [Compound 23, 3-(((7-((2-methyl-[1,1′-biphenyl]-3-yl)methoxy)-2,3-dihydro-1H-inden-4-yl)methyl)amino)butanoic acid] | < 6.30
12 | Cc1c(COc2ccc(CNC(C)C(=O)O)c3c2CCC3)cccc1-c1ccccc1 (centres unmarked) [Compound 24, ((7-((2-methyl-[1,1′-biphenyl]-3-yl)methoxy)-2,3-dihydro-1H-inden-4-yl)methyl)alanine] | < 6.30
13 | COc1cc(OCc2cccc(-c3ccccc3)c2C)c2c(c1CN1C[C@H](O)C[C@H]1C(=O)O)CCC2 [Compound 25, (2S,4R)-4-hydroxy-1-((5-methoxy-7-((2-methyl-[1,1′-biphenyl]-3-yl)methoxy)-2,3-dihydro-1H-inden-4-yl)methyl)pyrrolidine-2-carboxylic acid] | > 7.00
14 | COc1cc(OCc2cccc(-c3ccccc3)c2C)c2c(c1CN1CCCC[C@H]1C(=O)O)CCC2 [Compound 26, (S)-1-((5-methoxy-7-((2-methyl-[1,1′-biphenyl]-3-yl)methoxy)-2,3-dihydro-1H-inden-4-yl)methyl)piperidine-2-carboxylic acid] | 6.30 to 7.00
15 | Cc1cc(CN2C[C@H](O)C[C@H]2C(=O)O)c2c(c1OCc1cccc(-c3ccccc3)c1C)CCC2 [Compound 29, (2S,4R)-4-hydroxy-1-((6-methyl-7-((2-methyl-[1,1′-biphenyl]-3-yl)methoxy)-2,3-dihydro-1H-inden-4-yl)methyl)pyrrolidine-2-carboxylic acid] | 6.30 to 7.00
16 | CC(=O)NCCNCc1cc(Cl)c(OCc2cccc(-c3ccccc3)c2C)c2c1CCC2 [Compound 30, N-(2-(((6-chloro-7-((2-methyl-[1,1′-biphenyl]-3-yl)methoxy)-2,3-dihydro-1H-inden-4-yl)methyl)amino)ethyl)acetamide] | 6.30 to 7.00
17 | COc1cc(OCc2cccc(-c3cccc(OCCCN4CCC(F)(F)C4)c3C)c2C)c2c(c1CNCCNC(C)=O)CCC2 [Compound 32, N-(2-(((7-((3′-(3-(3,3-difluoropyrrolidin-1-yl)propoxy)-2,2′-dimethyl-[1,1′-biphenyl]-3-yl)methoxy)-5-methoxy-2,3-dihydro-1H-inden-4-yl)methyl)amino)ethyl)acetamide] | 6.30 to 7.00
18 | CC(=O)NCCNCc1c(OCc2cccc(C#N)c2)cc(OCc2cccc(-c3ccccc3)c2C)c2c1CCC2 [Compound 34, N-(2-(((5-((3-cyanobenzyl)oxy)-7-((2-methyl-[1,1′-biphenyl]-3-yl)methoxy)-2,3-dihydro-1H-inden-4-yl)methyl)amino)ethyl)acetamide] | > 7.00
19 | Cc1c(COc2cc(OCc3cccc(C#N)c3)c(CN3CCCC[C@H]3C(N)=O)c3c2CCC3)cccc1-c1ccccc1 [Compound 37, (S)-1-((5-((3-cyanobenzyl)oxy)-7-((2-methyl-[1,1′-biphenyl]-3-yl)methoxy)-2,3-dihydro-1H-inden-4-yl)methyl)piperidine-2-carboxamide] | > 7.00
20 | Cc1c(COc2cc(OCc3cccc(C#N)c3)c(CNC(CO)(CO)CO)c3c2CCC3)cccc1-c1ccccc1 [Compound 38, 3-(((4-(((1,3-dihydroxy-2-(hydroxymethyl)propan-2-yl)amino)methyl)-7-((2-methyl-[1,1′-biphenyl]-3-yl)methoxy)-2,3-dihydro-1H-inden-5-yl)oxy)methyl)benzonitrile] | > 7.00
21 | Cc1c(COc2cc(OCc3cccc(C#N)c3)c(CN3CC4(COC4)C3)c3c2CCC3)cccc1-c1ccccc1 [Compound 39, 3-(((4-((2-oxa-6-azaspiro[3.3]heptan-6-yl)methyl)-7-((2-methyl-[1,1′-biphenyl]-3-yl)methoxy)-2,3-dihydro-1H-inden-5-yl)oxy)methyl)benzonitrile] | 6.30 to 7.00
22 | Cc1c(COc2cc(OCc3cccc(C#N)c3)c(CN3CC4(CC4)C[C@H]3C(=O)O)c3c2CCC3)cccc1-c1ccccc1 [Compound 42, (S)-5-((5-((3-cyanobenzyl)oxy)-7-((2-methyl-[1,1′-biphenyl]-3-yl)methoxy)-2,3-dihydro-1H-inden-4-yl)methyl)-5-azaspiro[2.4]heptane-6-carboxylic acid] | > 7.00
23 | Cc1c(COc2cc(OCc3cccc(C#N)c3)c(CNCCCC(=O)O)c3c2CCC3)cccc1-c1ccccc1 [Compound 44, 4-(((5-((3-cyanobenzyl)oxy)-7-((2-methyl-[1,1′-biphenyl]-3-yl)methoxy)-2,3-dihydro-1H-inden-4-yl)methyl)amino)butanoic acid] | > 7.00
24 | CC(=O)NCCNCc1c(OCc2cncc(C#N)c2)cc(OCc2cccc(-c3ccccc3)c2C)c2c1CCC2 [Compound 48, N-(2-(((5-((5-cyanopyridin-3-yl)methoxy)-7-((2-methyl-[1,1′-biphenyl]-3-yl)methoxy)-2,3-dihydro-1H-inden-4-yl)methyl)amino)ethyl)acetamide] | > 7.00
25 | Cc1c(COc2cc(OCc3cncc(C#N)c3)c(CNC(CO)(CO)CO)c3c2CCC3)cccc1-c1ccccc1 [Compound 49, 5-(((4-(((1,3-dihydroxy-2-(hydroxymethyl)propan-2-yl)amino)methyl)-7-((2-methyl-[1,1′-biphenyl]-3-yl)methoxy)-2,3-dihydro-1H-inden-5-yl)oxy)methyl)nicotinonitrile] | > 7.00
26 | Cc1c(COc2cc(OCc3cncc(C#N)c3)c(CN3CCOC[C@H]3C(=O)O)c3c2CCC3)cccc1-c1ccccc1 [Compound 50, (S)-4-((5-((5-cyanopyridin-3-yl)methoxy)-7-((2-methyl-[1,1′-biphenyl]-3-yl)methoxy)-2,3-dihydro-1H-inden-4-yl)methyl)morpholine-3-carboxylicacid] | > 7.00

— patent US11529341B2, “Bicyclic compounds as inhibitors of PD1/PD-L1 interaction/activation” (JUBILANT PRODEL LLC, priority 2018, dated 2022)
